According to paper PMC12502564, “Evaluation of LLM-generated peptide as foundation template for discovery of effective encrypted AMPs against clinical superbugs” (Microbiology Spectrum, 2025):
Read-outs that look alike come from different tables or passages of the source. No end group written: not given here.

What was measured:
CRAB 2210186 [1] = format: cell-based, carbapenem-resistant Acinetobacter baumannii
Procedure: (§1) The MIC of all peptides was determined using the microdilution broth method in a 96-well plate. Peptides were dissolved in the DMSO with an initial concentration of 12,800 µg mL^−1. And cells of eight strains were separately suspended in the MHB at a density of approximately 10^5 CFU mL^−1. In the first column of the 96-well plate, 16 µL of peptide and 184 µL of MHB were added to each well to achieve a final concentration of 1,024 µg mL^−1. One-hundred microliters of MHB was added to each of the remaining wells. Then the first column of liquid was mixed well and diluted to the 12th column using the twofold dilution method. One-hundred microliters of prepared bacterial solution was added to all wells, and the 96-well plate was incubated at 37°C for 18–24 h. The MIC was defined as the concentration of the peptide in the well just preceding the first well showing visible turbidity. All experiments were performed in triplicate to ensure reliability.

MRSA 2210187 = format: cell-based, methicillin-resistant Staphylococcus aureus
Procedure: as §1

CRAB [2] = experiment: Drug resistance assay, 20 passages; format: cell-based, carbapenem-resistant Acinetobacter baumannii; details: 20 passages at 0.5-fold MIC, n = 3
Procedure: Resistance development assays were performed following previous report ([43]). CRAB was cultured overnight at 37°C at 160 rpm in LB. In wells of a 96-well polypropylene flat-bottom plate, 5 µL of the overnight bacterial culture (10^7 CFU mL^−1) was added to 100 µL of peptides/antibiotic solutions (with final concentrations of 0.25 to 512 µg mL^−1) in MHB. Plates were incubated for 18 to 20 h at 37°C. The MIC, the lowest concentration of peptides/antibiotic that caused lack of visible bacterial growth, was determined for each bacterial species. Thereafter, 5 µL of the growth at the 0.5-fold MIC suspension (10^7 CFU mL^−1) was added to a fresh medium containing peptides/antibiotic, and these mixtures were incubated as described above. This was repeated for 20 passages. All experiments were performed in triplicate to ensure reliability.

CRAB [3] = experiment: Time-kill curve; format: cell-based, carbapenem-resistant Acinetobacter baumannii; details: ~10^5 CFU mL^−1 in MH broth
Procedure: (§2) Bacteria in the logarithmic growth phase were diluted to approximately 10^5 CFU mL^−1 in MH broth and treated with peptides, polymyxin B, or vancomycin at final concentrations of 1/2 × MIC, 1 × MIC, 2 × MIC, and 4 × MIC. After the addition of the test compound, samples were taken at 0, 3, 6, 9, 12, and 24 h and serially diluted. Subsequently, 5 µL of the diluted samples were spread on agar plates and incubated at 37°C for 20 h. The bacterial concentration CFU mL^−1 at the corresponding time point of each sample was calculated based on the number of colonies on the agar plate, and the log10 (CFU mL^−1) was plotted against time (h).

CRAB 2210186 [4] = experiment: Thigh infection mouse model; format: in vivo, BALB/c mice; details: neutropenic mice, ~1 × 10^6 CFU in thigh, i.p. at 1, 3, 5, 7 h post-infection (PL-15 10 × MIC, 100 µL; polymyxin B 20,000–25,000 U kg^−1 day^−1), n = 8
Source text: The WHO has classified CRAB as a “Critical Priority” pathogen in its Priority Pathogens List, recognizing it as a predominant causative agent of hospital-acquired infections ([2]). This classification reflects CRAB’s global dissemination, high mortality rates, and extreme resistance profiles. Given this critical situation, a thigh infection model was employed to evaluate the in vivo therapeutic efficacy of PL-15 against CRAB. To establish the mouse thigh infection model, mice were pre-treated intraperitoneally with cyclophosphamide 4 days and 1 day prior to bacterial inoculation to induce neutropenia, administered at doses of 150 mg kg^−1 and 100 mg kg^−1, respectively ([51]). Each mouse was then injected with approximately 10^6 colony-forming unit (CFU) of CRAB in the thigh tissue, followed by four intraperitoneal injections of PL-15, polymyxin B, or phosphate-buffered saline (PBS) within 24 h of infection (Fig. 3a).
All animal experiments were performed according to the “Principles of Laboratory Animal Care” (NIH publication No. 86-23, revised 1985) and approved by the Animal Care and Use Committee of Shandong University (LL20240622, Jinan, China). Five-week-old male BALB/c mice were purchased from Beijing Vital River Laboratory Animal Technology Co., Ltd. (Beijing, China) and kept under a 12-hour light/12-hour dark cycle, humidity of 50%, and temperature of 22°C in standard specific pathogen-free individually vented cages.
To establish the mouse thigh infection model, mice were injected intraperitoneally with cyclophosphamide 4 d and 1 d before bacterial administration, at concentrations of 150 and 100 mg kg^−1, respectively, to induce neutropenia ([51]). CRAB 2210186 cells were suspended in sterile PBS, adjusted to a concentration of ~1 × 10^6 CFU per infection site and injected into the right thighs of eight mice per treatment group. PL-15 (10 × MIC, 100 µL), polymyxin B (20,000–25,000 U kg^−1 day^−1) or PBS were administered intraperitoneally at 1, 3, 5, and 7 h post-infection. Mice were euthanized 24 h after infection, and the thigh tissues were aseptically collected, weighed, homogenized, serially diluted in PBS, and plated onto solid MCA. The CFU of CRAB 2210186 per thigh was calculated by plating dilutions of the thigh homogenates (0.25 g of thigh tissue in 10 mL sterile PBS) on agar plates and counting colonies.

CRAB [5] = experiment: Biofilm formation inhibition assay (crystal violet); format: cell-based, carbapenem-resistant Acinetobacter baumannii; details: 1/2 × MIC, 24 h, OD570
Procedure: The crystal violet staining method ([66]) was used to determine the inhibitory activity of the compounds against the biofilm formation of CRAB. The steps were as follows: prepare a bacterial solution (10^6 CFU mL^−1), mix it with different final concentrations of the compound (1/2 × MIC, 1 × MIC, 2 × MIC, and 4 × MIC), and culture it for 24 h. After discarding the supernatant, wash with PBS, add anhydrous methanol to fix the biofilm, and then stain it with crystal violet for 60 min after drying. After washing, dissolve the biofilm with 33% glacial acetic acid, and measure OD570. Three parallel experiments were performed, and the biofilm formation inhibition rate was calculated by the following formula:
(3) Biofilm formation inhibition rate (%)=(1−OD(sample)− OD(blank)/OD(negative)− OD(blank))×100%

CRAB [6] = experiment: PI assay, cytoplasmic membrane integrity; format: cell-based, carbapenem-resistant Acinetobacter baumannii; details: 10 × MIC, 10^8 CFU mL^−1
Procedure: PI (which is known to stain nuclear chromatin upon cell membrane disruption) assay was carried out to evaluate the ability of AMPs to disrupt the cytoplasmic membrane integrity ([63]). After CRAB was grown to the exponential phase, bacteria cells were harvested and washed three times in washing buffer of 5 mM glucose and 5 mM HEPES (1:1, pH = 7.2) and then re-adjusted to 10^8 CFU mL^−1 in the same buffer. Bacterial suspensions (150 µL/well) were loaded into black-walled, clear-bottom 96-well plates with lids. Following bacterial loading, 50 µL of 10 µM PI was introduced into each well, with 30 min pre-incubation CRAB. Post-incubation fluorescence signals were acquired using 535 nm excitation and 617 nm emission wavelengths. Compounds (10 µL) were then administered to achieve 1 × MIC/10 × MIC-equivalent final concentrations in the dye-loaded bacterial suspensions. Real-time fluorescence monitoring was performed with continuous acquisition during the first 10 min, followed by measurements at 10-min intervals. Negative controls received 10 µL sterile water in lieu of antimicrobial peptides while maintaining equivalent pre-incubation conditions. All experimental conditions were executed with three biological replicates.

MRSA = experiment: Time-kill curve; format: cell-based, methicillin-resistant Staphylococcus aureus; details: ~10^5 CFU mL^−1 in MH broth
Procedure: as §2

CRKP 2403276 = format: cell-based, carbapenem-resistant K. pneumoniae
Procedure: as §1

[7] = test system: all eight bacterial strains; format: cell-based, gram-positive and gram-negative bacteria
Procedure: as §1

S. aureus ATCC25923 = format: cell-based, Staphylococcus aureus
Procedure: as §1

A. baumannii ATCC19606 = format: cell-based, Acinetobacter baumannii
Procedure: as §1

CRPA 2403282 = format: cell-based, carbapenem-resistant P. aeruginosa
Procedure: as §1

E. coli ATCC25922 = format: cell-based, Escherichia coli
Procedure: as §1

CRAB [8] = test system: CRAB; design: method as in earlier work; details: in vitro; cited from earlier work
Source text: Using this validated AMP as a template, we performed sequence alignment with the National Center for Biotechnology Information (NCBI) database to identify encrypted AMPs.

[9] = design: method as in earlier work; details: cited from earlier work
[10] = MHB, ~10^5 CFU mL^−1, 37°C, 18–24 h, triplicate

For GVIKSVLKGVAKTVALGML-NH2 [B2RP-Era], the MIC (CRAB 2210186 [1]) was “below 8 µg mL^−1” and the MIC (MRSA 2210187; 2210187) was “below 8 µg mL^−1”.
With GLLKPLLKIAAKVGSNLL-NH2 [[G4K]XT-7] the MIC (CRAB 2210186 [1]) was “below 8 µg mL^−1” and the MIC (MRSA 2210187; 2210187) was “below 8 µg mL^−1”.
With GIGKFLKKAKKFGKAFVKILKK-NH2 [pexiganan] the MIC (CRAB 2210186 [1]) was “below 8 µg mL^−1” and the MIC (MRSA 2210187; [10]) was “below 8 µg mL^−1”.
With GLGSLLGKAFKIGLKTVGKMMGGAPREQ [CPF-B1] the MIC (CRAB 2210186 [1]; [10]) was “below 8 µg mL^−1” and the MIC (MRSA 2210187; [10]) was “below 8 µg mL^−1”.
With polymyxin B [reference compound] the “MIC change after serial passaging” value (CRAB [2]) was 64 fold, the “time to complete bacterial eradication of CRAB” value (CRAB [3]; 2 × MIC) was 6 h and the “time to kill CRAB” value (CRAB [3]; 4 × MIC) was no more than 3 h. For the same compound, the “reduction of bacterial load compared to the PBS control group” value (CRAB 2210186 [4]; 24 h) was “two orders of magnitude”, the “bacteria eradicated in the thigh tissue within 24 h” value (CRAB 2210186 [4]) was “over 97%” and the biofilm formation inhibition (CRAB [5]) was “moderate biofilm inhibition”. The “PI fluorescence (cytoplasmic membrane integrity)” value (CRAB [6]) was “strongest fluorescence response”.
With `CN[C@H](CC(C)C)C(=O)N[C@H]1C(=O)N[C@@H](CC(N)=O)C(=O)N[C@H]2C(=O)N[C@H]3C(=O)N[C@H](C(=O)N[C@H](C(=O)O)c4cc(O)cc(O)c4-c4cc3ccc4O)[C@H](O)c3ccc(c(Cl)c3)Oc3cc2cc(c3O[C@@H]2O[C@H](CO)[C@@H](O)[C@H](O)[C@H]2O[C@H]2C[C@](C)(N)[C@H](O)[C@H](C)O2)Oc2ccc(cc2Cl)[C@H]1O` [vancomycin, reference compound] the “time to complete bacterial eradication of MRSA” value (MRSA; 1 × MIC) was no more than 6 h, the “time to full bacterial killing of MRSA” value (MRSA; 2 × MIC) was no more than 3 h and the “time to full bacterial killing of MRSA” value (MRSA; 4 × MIC) was no more than 3 h.
In the case of GIWKTIKSMGKVFAGKILQNL-NH2 [[D4K]B2RP], the MIC (CRAB 2210186 [1]) is reported as “below 8 µg mL^−1” and the MIC (MRSA 2210187; 2210187) is reported as “below 8 µg mL^−1”.
With WLKKILAWLKKKW [BR-13] the MIC (CRKP 2403276) was “lower than 11 µg mL^−1”, the “MIC for all tested bacteria” value [7] was no more than 64 µg/mL and the antimicrobial spectrum ([7]; judged from MICs on eight strains) was “broad-spectrum antimicrobial properties”. For the same compound, the MIC (S. aureus ATCC25923) was “lower than 11 µg mL^−1”, the MIC (A. baumannii ATCC19606) was “lower than 11 µg mL^−1” and the MIC (CRPA 2403282) was 64 µg/mL. The MIC (CRAB 2210186 [1]) was 18.67 µg/mL, the MIC (MRSA 2210187; 2210187) was 3.33 µg/mL and the MIC (E. coli ATCC25922) was “lower than 11 µg mL^−1”.
In the case of “ILGKLLKTAAKLLSNL [[S7K,G11K]alyteserin-2a]”, the MIC (CRAB 2210186 [1]; [10]) is reported as “below 8 µg mL^−1” and the MIC (MRSA 2210187; 2210187) is reported as “below 8 µg mL^−1”.
With “LKLSPKTKDTLKKVLKGAIKGAIAIASMA-NH2 [hymenochirin-1Pa]” the MIC (CRAB 2210186 [1]) was “below 8 µg mL^−1” and the MIC (MRSA 2210187; 2210187) was “below 8 µg mL^−1”.
In the case of “WLKKILKWLKW [g_AMP41, short peptide … generated by AMPGenix, used as template]”, the MIC (CRAB [8]) is listed as 8 µg/mL and the “efficacy in treating infections in vivo” value [9] is listed as “suboptimal efficacy”.
